Data on 12 molecules can be found in PubChem BioAssay (NCI).

Holding throughout (assay): DTP human tumour cell line panel, 48 h
Test [1] has as its system MALME-3M melanoma.
Test [2] deals with OVCAR-3 ovarian.
Test [3] has as its system UACC-257 melanoma.
In test [4] the test system is U251 CNS.
The test system of test [5] is M14 melanoma.
Test [6] has as its system HCT-116 colon.
Test [7] relates to EKVX NSCLC.
Test [8] concerns A549 NSCLC.
Test [9] has as its system NCI-H226 lung.

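A five-concentration, 48-hour dose response in 96-well plates underlies each endpoint, interpolated linearly between surrounding concentrations. GI50 marks 50% less growth. TGI is the concentration that stops growth completely.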 Some results are limits rather than exact numbers.

Turning to `Cc1cc(Cl)ccc1NC(=O)CCCC(=O)C(C(=O)c1ccccc1)c1ccccc1` (configuration not stated), the TGI in test [1], in test [2], in [3], in test [4] and in test [5] was above 100 µM throughout.
Turning to `O=C(O)c1oc2cccc3c2c1CCC3`, the TGI in [1], in test [6], in test [2], in test [7], in test [3] and in [4] was above 100 µM in each case. The TGI in test [5] and in test [8] was above 100 µM in each case.
As for `[N-]=[N+]=Nc1c(Br)c(=O)[nH]c(=O)n1COCCO`, the TGI in [1], in test [6], in test [2], in test [3], in test [4] and in test [5] was above 100 µM throughout. Further, in [8], the TGI is above 100 µM.
For `CNC(C)Cc1ccc(O)cc1` (configuration not stated), the TGI in [1], in test [6], in test [2], in test [7], in test [3] and in test [9] was above 100 µM each time. The TGI in test [4], in [5] and in test [8] was above 100 µM each time.
With `c1ccc(COc2cccc3cccnc23)cc1`, the TGI in [1], in test [6], in test [2], in test [7], in test [3] and in test [9] was above 100 µM each time. Moreover, the TGI in test [5] and in [8] was above 100 µM throughout.
For `CC1=NN(C(=O)c2cc(Cl)cc([N+](=O)[O-])c2)C(=O)C1N=Nc1ccccc1C(=O)O` (configuration not stated), the TGI in test [1], in [6], in test [2], in test [7], in [3] and in [9] was above 100 µM throughout. Also, the TGI in test [4] and in test [8] was above 100 µM in each case.
With `COC(=O)C1=C(c2cc(OC)c(OC)c(OC)c2)O[C@H](c2ccc3c(c2)OCO3)[C@H]1COC(C)=O`, the TGI in [1] was above 100 µM; in test [2], above 100 µM; in test [7] it was above 100 µM; in [3] it was above 100 µM; in [9], above 100 µM; in test [4], 63.5 µM. In test [5], this molecule showed a TGI of 43.3 µM.
`C/C=C/C(=O)[O-].N.N.N.N.N.[Co+3].[O-][Cl+3]([O-])([O-])[O-]`: the GI50 in [1], in [6], in test [2], in test [7], in test [3] and in test [4] was above 100 µM throughout. The GI50 in test [5] and in test [8] was above 100 µM each time. The TGI in test [1], in test [6], in test [2], in test [7], in [3] and in test [4] was above 100 µM each time. Besides, the TGI in [5] and in [8] was above 100 µM throughout.
As to `CC(=O)O[C@H](C[C@H](C(C)C)N(C)C(=O)[C@@H](NC(=O)[C@H]1CCCCN1C)C(C)(C)C)c1nc(C(=O)N[C@@H](Cc2ccccc2)C[C@H](C)C(=O)O)cs1`, the GI50 in test [1] was below 0.0025 µM; in test [6] it was below 0.0025 µM; in [2], below 0.0025 µM; in [7] it was 0.00462 µM; in test [9], 0.0348 µM; in test [4], below 0.0025 µM. The GI50 in test [5] and in test [8] was below 0.0025 µM throughout. Moreover, the TGI in [1] was above 25 µM; in test [6] it was above 25 µM; in test [2], 0.00448 µM; in test [7] it was above 25 µM; in [4], above 25 µM; in test [8], above 25 µM.
In the case of `CCC1(CC)C(=O)[N-]C(=O)[N-]C1=O.[Au+].[Au+].c1ccc([PH+](c2ccccc2)c2ccccc2)cc1.c1ccc([PH+](c2ccccc2)c2ccccc2)cc1`, the GI50 in test [1] is 0.626 µM; in test [2] it was 1.31 µM; in test [3], 1.26 µM; in [4] it was 1.16 µM; in test [5] it was 0.752 µM. Besides, the TGI in [1] stood at 1.94 µM; in [2] it was 2.59 µM; in test [3] it was 2.53 µM; in test [4], 2.65 µM; in test [5], 2.05 µM.
In the case of `Cc1ccc(C)c2c1CCc1cc3ccccc3nc1-2`, the TGI in test [1], in [6], in test [2], in test [7], in test [3] and in test [4] was above 100 µM in each case. The TGI in test [5] and in test [8] was above 100 µM in each case.
`O=C(O)Cc1cc(=O)[nH]c2c1C(=O)CCC2`: the TGI in test [1], in [2], in test [7], in test [3], in test [9] and in test [4] was above 100 µM throughout. In test [5], this molecule showed a TGI above 100 µM.
